According to patent US9549965B2, “Pharmaceutical composition for treating a microbial infection” (HELPERBY THERAPEUTICS LIMITED, priority 2010, dated 2017):
Where “and” joins values, the source holds several entries; their conditions need not be identical. Equal values may be shown once. Where a name gives a salt, the structure may show the parent alone. Read-outs that look alike come from different tables or passages of the source.

Assays:
[1] = system: stationary phase S. aureus; test: Bactericidal activity against stationary phase S. aureus (CFU counts); assay type: cell-based, Staphylococcus aureus; details: Staphylococcus aureus, read-out: Log Kill; for log reduction at 6.25 µg/mL: 6.25 μg/ml; for log reduction at 12.5 µg/mL: 12.5 μg/ml; for log reduction at 25 µg/mL: 25 μg/ml
Method: Staphylococcus aureus (Oxford strain); Gram positive; Reference strain.
(§1) Bacteria were grown in 10 ml of nutrient broth (No. 2 (Oxoid)) overnight at 37° C., with continuous shaking at 120 rpm. The overnight cultures were diluted (1000×) in 100 ml of growth medium and then incubated without shaking for 10 days. Viability of the bacteria was estimated by colony forming unit (CFU) counts at 2 hour intervals at the first 24 hours and at 12-24 hours afterwards. From serial 10-fold dilutions of the experimental cultures, 100 μl samples were added to triplicate plates of nutrient agar plates (Oxoid) and blood agar plates (Oxoid). Colony forming units (CFU) were counted after incubation of the plates at 37° C. for 24 hours.
(§2) Cultures incubated for more than 24 hours are in the stationary phase. For drug screening, 5-6 day old stationary phase cultures were used.
(§3) Different concentrations of each test compound were incubated with stationary phase cultures (5-6 day cultures) in 96 well plates for 24 or 48 hours. Bactericidal activity was then determined by taking CFU counts of the resulting cultures, as described above.

[2] = system: stationary phase E. coli; test: Bactericidal activity against stationary phase E. coli (CFU counts); assay type: cell-based, Escherichia coli; details: for log reduction at 6.25 µg/mL / log reduction at 12.5 µg/mL / log reduction at 25 µg/mL: Escherichia coli, read-out: Log kill
Method: (§4) Escherichia coli K12; Gram negative; Reference strain.
as §1, §2, §3

[3] = system: log phase E. coli; test: MIC against log phase E. coli; assay type: cell-based, Escherichia coli
Method: as §4
(§5) The above-described overnight cultures were diluted (1000×) with iso-sensitest broth. The cultures were then incubated at 37° C. with shaking for 1-2 hours to reach log CFU 6, which served as log phase cultures.
(§6) The bactericidal activity of the drugs against log phase cultures were determined by minimal inhibitory concentration (MIC) of the drugs, which is defined as the lowest concentration which inhibits visible growth. Different concentrations of each test compound were incubated with the log-phase cultures in 96 well plates for 24 hours. Bactericidal activity was then examined by taking a spectrophotometer reading (using a plate reader) at 405 nm.

[4] = system: NDM-1 Klebsiella pneumoniae; test: Chequerboard analysis with colistin against NDM-1 Klebsiella pneumoniae; assay type: cell-based
[5] = system: persistent E. coli; test: Bactericidal activity against persistent E. coli selected by gentamicin; assay type: cell-based, Escherichia coli
Method: as §4
An antibiotic (gentamicin) was added to 5-6 day stationary-phase cultures to the final concentration of 50 to 100 μg/ml for 24 hours. After 24 hours of antibiotic treatment, the cells are washed 3 times with phosphate buffered saline (PBS), and then resuspended in PBS. The surviving bacterial cells are used as persisters. Viability is estimated by CFU counts. The persisters were then used in measurements of bactericidal activity for test compounds.
Different concentrations of each test compound were incubated with the (persister) cell suspension in 96 well plates for various periods of time (24 and 48 hours). Bactericidal activity was then determined by taking CFU counts of the resulting cultures, as described above.

[6] = system: log phase E. coli; test: Chequerboard analysis with polymyxin E against log phase E. coli; assay type: cell-based, Escherichia coli
Method: as §4, §5, §6

[7] = Escherichia coli, read-out: MIC

CN1CCN(CCCN2c3ccccc3Sc3ccc(C(F)(F)F)cc32)CC1 [Trifluoperazine hydrochloride]
log reduction at 6.25 µg/mL [1]: 0
log reduction at 12.5 µg/mL [1]: 2.22
log reduction at 25 µg/mL [1]: 6.03
log reduction at 6.25 µg/mL ([2]; 6.25 μg/ml): -0.12
log reduction at 12.5 µg/mL ([2]; 12.50 μg/ml): 6.14
log reduction at 25 µg/mL ([2]; 25.00 μg/ml): 6.14
MIC [3, 7]: 20 µg/mL
spectrophotometer reading ([4]; trifluoperazine hydrochloride 0.25 mg/L alone): 0.96
spectrophotometer reading ([4]; trifluoperazine hydrochloride 0.5 mg/L alone): 0.95
spectrophotometer reading ([4]; trifluoperazine hydrochloride 1 mg/L alone): 0.94
spectrophotometer reading ([4]; trifluoperazine hydrochloride 2 mg/L alone): 0.96
spectrophotometer reading ([4]; trifluoperazine hydrochloride 4 mg/L alone): 0.95
spectrophotometer reading ([4]; trifluoperazine hydrochloride 8 mg/L alone): 0.97
spectrophotometer reading ([4]; trifluoperazine hydrochloride 16 mg/L alone): 0.98
spectrophotometer reading ([4]; trifluoperazine hydrochloride 32 mg/L alone): 0.95
spectrophotometer reading ([4]; trifluoperazine hydrochloride 64 mg/L alone): 0.77
spectrophotometer reading ([4]; trifluoperazine hydrochloride 128 mg/L alone): 0.87
spectrophotometer reading ([4]; trifluoperazine hydrochloride 256 mg/L alone): 1.33

C1CCC(C(CC2CCCCN2)C2CCCCC2)CC1 (stereo not shown) [Perhexiline maleate]
log reduction at 6.25 µg/mL [1]: 6.15
log reduction at 12.5 µg/mL [1]: 6.15
log reduction at 25 µg/mL [1]: 6.15
MIC [3, 7]: 10 µg/mL
log reduction at 6.25 µg/mL ([5]; Escherichia coli, 6.25 μg/ml, read-out: Log Kill): -0.01
log reduction at 12.5 µg/mL ([5]; Escherichia coli, 12.5 μg/ml, read-out: Log Kill): 0.04
log reduction at 25 µg/mL ([5]; Escherichia coli, 25 μg/ml, read-out: Log Kill): 6.21

CCCCCCc1ccc(O)cc1O.Nc1c2ccccc2nc2ccccc12 [Acrisorcin]
Log Kill ([2]; 6.25 μg/ml): 6.14
Log Kill ([2]; 12.50 μg/ml): 6.14
Log Kill ([2]; 25.00 μg/ml): 6.14
MIC [3]: — (— signifies MIC higher than 50 μg/ml)

Vitamin B12
MIC [3]: — (— signifies MIC higher than 50 μg/ml)
Log Kill ([5]; 6.25 μg/ml): 0.03
Log Kill ([5]; 12.5 μg/ml): 6.21
Log Kill ([5]; 25 μg/ml): 6.21

Polymyxin E (Colistin)
spectrophotometer reading ([6]; polymyxin E 0.0019 μg/ml alone): 1.53
spectrophotometer reading ([6]; polymyxin E 0.0039 μg/ml alone): 1.55
spectrophotometer reading ([6]; polymyxin E 0.0078 μg/ml alone): 1.55
spectrophotometer reading ([6]; polymyxin E 0.015625 μg/ml alone): 1.53
spectrophotometer reading ([6]; polymyxin E 0.03125 μg/ml alone): 1.42
spectrophotometer reading ([6]; polymyxin E 0.0625 μg/ml alone): 1.52
spectrophotometer reading ([6]; polymyxin E 0.125 μg/ml alone): 1.48
spectrophotometer reading ([6]; polymyxin E 0.25 μg/ml alone): 1.25
spectrophotometer reading ([6]; polymyxin E 0.5 μg/ml alone): 0.49
spectrophotometer reading ([6]; polymyxin E 1 μg/ml alone): 0.49
spectrophotometer reading ([6]; polymyxin E 2 μg/ml alone): 0.50
spectrophotometer reading ([4]; colistin 0.5 mg/L alone, Table 6): 1.08
spectrophotometer reading ([4]; colistin 0.5 mg/L alone, Table 7): 0.98
spectrophotometer reading ([4]; colistin 0.5 mg/L alone, Table 8): 0.94
spectrophotometer reading ([4]; colistin 0.5 mg/L alone, Table 9): 1.12
spectrophotometer reading ([4]; colistin 0.5 mg/L alone, Table 10): 1.14
spectrophotometer reading ([4]; colistin 0.5 mg/L alone, Table 11): 0.96
spectrophotometer reading ([4]; colistin 1 mg/L alone, Table 6): 1.03
spectrophotometer reading ([4]; colistin 1 mg/L alone, Table 7): 1.02
spectrophotometer reading ([4]; colistin 1 mg/L alone, Table 8): 0.94
spectrophotometer reading ([4]; colistin 1 mg/L alone, Table 9): 1.13
spectrophotometer reading ([4]; colistin 1 mg/L alone, Table 10): 1.12
spectrophotometer reading ([4]; colistin 1 mg/L alone, Table 11): 0.93
spectrophotometer reading ([4]; colistin 2 mg/L alone, Table 6): 1.05
spectrophotometer reading ([4]; colistin 2 mg/L alone, Table 7): 0.95
spectrophotometer reading ([4]; colistin 2 mg/L alone, Table 8): 0.87
spectrophotometer reading ([4]; colistin 2 mg/L alone, Table 9): 1.07
spectrophotometer reading ([4]; colistin 2 mg/L alone, Table 10): 1.09
spectrophotometer reading ([4]; colistin 2 mg/L alone, Table 11): 0.91
spectrophotometer reading ([4]; colistin 4 mg/L alone, Table 6): 0.34
spectrophotometer reading ([4]; colistin 4 mg/L alone, Table 7): 0.87
spectrophotometer reading ([4]; colistin 4 mg/L alone, Table 8): 0.54
spectrophotometer reading ([4]; colistin 4 mg/L alone, Table 9): 0.80
spectrophotometer reading ([4]; colistin 4 mg/L alone, Table 10): 0.89
spectrophotometer reading ([4]; colistin 4 mg/L alone, Table 11): 0.90
spectrophotometer reading ([4]; colistin 8 mg/L alone, Table 6): 0.82
spectrophotometer reading ([4]; colistin 8 mg/L alone, Table 7): 0.44
spectrophotometer reading ([4]; colistin 8 mg/L alone, Table 8): 0.57
spectrophotometer reading ([4]; colistin 8 mg/L alone, Table 9): 0.68
spectrophotometer reading ([4]; colistin 8 mg/L alone, Table 10): 0.63
spectrophotometer reading ([4]; colistin 8 mg/L alone, Table 11): 0.53
spectrophotometer reading ([4]; colistin 16 mg/L alone, Table 6): 0.78
spectrophotometer reading ([4]; colistin 16 mg/L alone, Table 7): 0.53
spectrophotometer reading ([4]; colistin 16 mg/L alone, Table 8): 0.39
spectrophotometer reading ([4]; colistin 16 mg/L alone, Table 9): 0.40
spectrophotometer reading ([4]; colistin 16 mg/L alone, Table 10): 0.69
spectrophotometer reading ([4]; colistin 16 mg/L alone, Table 11): 0.48
spectrophotometer reading ([4]; colistin 32 mg/L alone, Table 6): 0.33
spectrophotometer reading ([4]; colistin 32 mg/L alone, Table 7): 0.36
spectrophotometer reading ([4]; colistin 32 mg/L alone, Table 8): 0.41
spectrophotometer reading ([4]; colistin 32 mg/L alone, Table 9): 0.39
spectrophotometer reading ([4]; colistin 32 mg/L alone, Table 10): 0.40
spectrophotometer reading ([4]; colistin 32 mg/L alone, Table 11): 0.41
Colistin MIC ([4]; colistin alone): 32 µg/mL and 16 µg/mL
Colistin MIC ([4]; combined with 32 mg/L of suloctidil): 1 µg/mL
Colistin MIC ([4]; combined with 64 mg/L of mefloquine): 0.5 µg/mL

COc1cccc2c1C(=O)c1c(O)c3c(c(O)c1C2=O)C[C@@](O)(C(=O)CO)C[C@@H]3O[C@H]1C[C@H](N)[C@H](O)[C@H](C)O1 [Doxorubicin]
log reduction at 6.25 µg/mL ([2]; 6.25 μg/ml): 6.14
log reduction at 12.5 µg/mL ([2]; 12.50 μg/ml): 6.14
log reduction at 25 µg/mL ([2]; 25.00 μg/ml): 6.14
MIC [3, 7]: > 50 µg/mL

CCN(CC)CCCC(C)Nc1c2ccc(Cl)cc2nc2ccc(OC)cc12 (stereo not shown) [Quinacrine hydrochloride]
log reduction at 6.25 µg/mL ([2]; 6.25 μg/ml): 1.27
log reduction at 12.5 µg/mL ([2]; 12.50 μg/ml): 2.14
log reduction at 25 µg/mL ([2]; 25.00 μg/ml): 6.14
MIC [3, 7]: > 50 µg/mL
